Source: patent US10689362B2, “Quinoxaline compounds as type III receptor tyrosine kinase inhibitors” (Development Center for Biotechnology, priority 2016, dated 2020)

Key:
CSF-1R kinase = CSF-1R kinase (Homo sapiens (Human), UniProt P07333); assay: CSF-1R kinase assay (AlphaScreen); format: biochemical; details: class symbol
Method: Inhibition of CSF-1R kinase activity by a test compound disclosed herein was estimated by AlphaScreen (PerkinElmer). […] Reactions were incubated at 30° C. for 45 min and stopped by adding 5 μL of 50 mM EDTA. Analysis of resulting product using an AlphaScreen kit, and counted with Enspire Alpha (PerkinElmer). […] The IC50 values of quinoxaline compounds of this invention against CSF-1R kinase were determined using the GraphPad Prism 5 software.

c-KIT kinase = c-KIT kinase (Homo sapiens (Human), UniProt P10721); assay: c-KIT kinase assay (radiometric); format: biochemical
Procedure, shortened: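 Recombinant c-Kit (20 ng) with 2 μg Poly-(Glu4:Tyr1) in MOPS pH 7.0 buffer with MgCl2/MnCl2, 10 μM ATP plus [^33P]-ATP, 4% DMSO final, 60 min at 30° C. Stopped with phosphoric acid, filter-captured and scintillation counted; IC50 from curve fit.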

FLT3 kinase = FLT3 kinase (Homo sapiens (Human), UniProt P36888); assay: FLT3 kinase assay (radiometric); format: biochemical
Procedure, shortened: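 Recombinant FLT3 (5 ng) phosphorylating poly(Glu4:Tyr1) (2 μg) with 10 μM ATP plus [^33P]-ATP in MOPS pH 7.0 buffer, 4% DMSO final, 60 min at 30° C. Reaction stopped with phosphoric acid, filter-captured and scintillation-counted; IC50 derived from dose-response.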

PDGFRβ kinase = PDGFRβ kinase (Homo sapiens (Human), UniProt P09619); assay: PDGFRβ kinase assay (radiometric); format: biochemical
Procedure, shortened: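 Radiometric assay: recombinant PDGFRβ with poly(Glu4:Tyr1) in MOPS pH 7.0 buffer containing Mg2+/Mn2+, 10 μM ATP plus [33P]-ATP, and compound at 4% DMSO final. Incubated 60 min at 30° C, stopped with phosphoric acid, filter-captured and scintillation-counted. IC50 from curve fitting.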

[1] = system: CSF-1-dependent M-NFS-60 mouse myeloid leukemia cell; assay: M-NFS-60 cell proliferation assay (CellTiter-96); format: cell-based; details: Cytotoxicity, M-NFS-60 cells, 72 hours
Procedure, shortened: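 CSF-1-dependent M-NFS-60 cells seeded at 2000 cells/well, settled overnight at 37 °C, 5% CO2, then exposed to increasing compound concentrations for 72 h. Viability read by CellTiter 96 AQueous One reagent (4 h) at 490 nm absorbance.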

[2] = system: MV4-11 human acute myeloid leukemia cell with FLT3-ITD mutation; assay: MV4-11 cell proliferation assay (CellTiter-96); format: cell-based; details: Cytotoxicity, MV4-11 cells, 72 hours
Procedure, shortened: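 MV4-11 cells (FLT3-ITD, FLT3-dependent growth) seeded at 6500 cells/well, incubated overnight at 37° C., 5% CO2, then exposed to increasing compound concentrations for 72 hours. Viability read by CellTiter96 AQueous One reagent (4 hours), absorbance at 490 nm.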

[3] = system: Kasumi-1 human acute myeloid leukemia cell with c-KIT N822K activating mutation; assay: Kasumi-1 cell proliferation assay (CellTiter-96); format: cell-based; details: Cytotoxicity, Kasumi-1 cells, 72 hours
Procedure, shortened: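 Kasumi-1 cells, seeded at 64000 cells/well and incubated overnight at 37 °C, were exposed to increasing compound concentrations for 72 h. Viability was measured by CellTiter96 AQueous One reagent (4 h) and absorbance at 490 nm.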

[4] = system: THP-1 human acute monocytic leukemia cell harboring NRAS G12D mutation; assay: THP-1 cell proliferation assay (counter screen, CellTiter-96); format: cell-based; details: Cytotoxicity, THP-1 cells (counter screen), 72 hours
Procedure, shortened: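 THP-1 cells, RTK-independent owing to NRAS G12D, seeded at 5000/well, incubated overnight at 37 °C/5% CO2, then exposed to increasing compound concentrations for 72 h. CellTiter96 AQueous One reagent added for 4 h; viability from absorbance at 490 nm.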

[5] = system: osteoclast precursors (osteoclast differentiation); assay: Osteoclast tartrate-resistant acid phosphatase assay; format: cell-based; details: 168 h, at 1 μM treatment, 7 days, RANKL and M-CSF, read-out: inhibition activity against osteoclast differentiation
Procedure, shortened: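 Differentiation inhibition was scored at 1 μM compound in duplicate, using supernatant TRAP activity read at 550 nm with an acid phosphatase kit.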

c-KIT kinase, sequence (P10721 26-976): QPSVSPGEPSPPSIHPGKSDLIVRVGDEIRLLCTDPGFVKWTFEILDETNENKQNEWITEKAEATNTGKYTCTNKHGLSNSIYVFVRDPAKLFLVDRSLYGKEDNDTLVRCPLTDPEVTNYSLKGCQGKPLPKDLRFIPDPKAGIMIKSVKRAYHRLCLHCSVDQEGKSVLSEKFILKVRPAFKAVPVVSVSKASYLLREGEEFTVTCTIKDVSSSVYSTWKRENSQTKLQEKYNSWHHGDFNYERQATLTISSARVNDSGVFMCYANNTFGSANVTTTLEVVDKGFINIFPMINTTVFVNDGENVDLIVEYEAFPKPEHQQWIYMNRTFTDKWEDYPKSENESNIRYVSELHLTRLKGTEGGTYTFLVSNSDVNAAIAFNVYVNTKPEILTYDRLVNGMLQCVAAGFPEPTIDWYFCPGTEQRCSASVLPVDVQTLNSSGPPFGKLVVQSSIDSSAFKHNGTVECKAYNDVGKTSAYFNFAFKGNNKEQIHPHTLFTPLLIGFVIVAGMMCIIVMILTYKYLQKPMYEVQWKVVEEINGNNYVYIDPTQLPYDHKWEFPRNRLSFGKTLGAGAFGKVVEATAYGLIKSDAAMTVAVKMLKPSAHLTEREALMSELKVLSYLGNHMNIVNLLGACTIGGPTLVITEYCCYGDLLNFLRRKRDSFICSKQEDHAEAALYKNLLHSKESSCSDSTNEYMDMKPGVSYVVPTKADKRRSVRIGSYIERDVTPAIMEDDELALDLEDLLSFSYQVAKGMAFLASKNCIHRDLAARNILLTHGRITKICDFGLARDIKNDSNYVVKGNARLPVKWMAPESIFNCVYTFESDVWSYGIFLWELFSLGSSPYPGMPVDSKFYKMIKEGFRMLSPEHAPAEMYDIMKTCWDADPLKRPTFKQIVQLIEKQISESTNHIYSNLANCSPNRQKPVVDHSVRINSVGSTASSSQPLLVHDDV
FLT3 kinase, sequence (P36888 27-993): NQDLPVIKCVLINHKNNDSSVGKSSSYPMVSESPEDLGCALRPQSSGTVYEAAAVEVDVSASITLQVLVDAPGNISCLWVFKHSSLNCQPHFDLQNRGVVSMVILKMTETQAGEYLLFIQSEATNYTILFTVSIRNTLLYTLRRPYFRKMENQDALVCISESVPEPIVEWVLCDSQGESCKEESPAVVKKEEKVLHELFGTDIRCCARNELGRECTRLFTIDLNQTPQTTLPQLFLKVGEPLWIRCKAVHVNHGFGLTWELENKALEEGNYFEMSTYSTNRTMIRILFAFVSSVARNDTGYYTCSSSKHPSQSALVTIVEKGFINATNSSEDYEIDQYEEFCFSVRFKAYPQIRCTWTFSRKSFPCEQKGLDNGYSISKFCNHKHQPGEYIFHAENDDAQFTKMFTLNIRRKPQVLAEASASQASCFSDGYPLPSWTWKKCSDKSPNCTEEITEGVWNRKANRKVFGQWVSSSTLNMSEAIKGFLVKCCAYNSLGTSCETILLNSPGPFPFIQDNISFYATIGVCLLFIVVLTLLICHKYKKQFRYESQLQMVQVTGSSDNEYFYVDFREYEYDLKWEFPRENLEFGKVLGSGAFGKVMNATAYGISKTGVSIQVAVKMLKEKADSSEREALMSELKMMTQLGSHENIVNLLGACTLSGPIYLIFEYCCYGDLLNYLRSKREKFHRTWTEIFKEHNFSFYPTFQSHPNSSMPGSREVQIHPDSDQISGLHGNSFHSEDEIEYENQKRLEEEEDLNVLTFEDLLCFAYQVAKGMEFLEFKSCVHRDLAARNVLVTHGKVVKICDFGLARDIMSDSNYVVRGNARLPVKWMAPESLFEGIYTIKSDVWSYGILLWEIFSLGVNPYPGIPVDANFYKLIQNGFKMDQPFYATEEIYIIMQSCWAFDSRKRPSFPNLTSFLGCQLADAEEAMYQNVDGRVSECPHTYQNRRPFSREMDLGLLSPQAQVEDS
PDGFRβ kinase, sequence (P09619 33-1106): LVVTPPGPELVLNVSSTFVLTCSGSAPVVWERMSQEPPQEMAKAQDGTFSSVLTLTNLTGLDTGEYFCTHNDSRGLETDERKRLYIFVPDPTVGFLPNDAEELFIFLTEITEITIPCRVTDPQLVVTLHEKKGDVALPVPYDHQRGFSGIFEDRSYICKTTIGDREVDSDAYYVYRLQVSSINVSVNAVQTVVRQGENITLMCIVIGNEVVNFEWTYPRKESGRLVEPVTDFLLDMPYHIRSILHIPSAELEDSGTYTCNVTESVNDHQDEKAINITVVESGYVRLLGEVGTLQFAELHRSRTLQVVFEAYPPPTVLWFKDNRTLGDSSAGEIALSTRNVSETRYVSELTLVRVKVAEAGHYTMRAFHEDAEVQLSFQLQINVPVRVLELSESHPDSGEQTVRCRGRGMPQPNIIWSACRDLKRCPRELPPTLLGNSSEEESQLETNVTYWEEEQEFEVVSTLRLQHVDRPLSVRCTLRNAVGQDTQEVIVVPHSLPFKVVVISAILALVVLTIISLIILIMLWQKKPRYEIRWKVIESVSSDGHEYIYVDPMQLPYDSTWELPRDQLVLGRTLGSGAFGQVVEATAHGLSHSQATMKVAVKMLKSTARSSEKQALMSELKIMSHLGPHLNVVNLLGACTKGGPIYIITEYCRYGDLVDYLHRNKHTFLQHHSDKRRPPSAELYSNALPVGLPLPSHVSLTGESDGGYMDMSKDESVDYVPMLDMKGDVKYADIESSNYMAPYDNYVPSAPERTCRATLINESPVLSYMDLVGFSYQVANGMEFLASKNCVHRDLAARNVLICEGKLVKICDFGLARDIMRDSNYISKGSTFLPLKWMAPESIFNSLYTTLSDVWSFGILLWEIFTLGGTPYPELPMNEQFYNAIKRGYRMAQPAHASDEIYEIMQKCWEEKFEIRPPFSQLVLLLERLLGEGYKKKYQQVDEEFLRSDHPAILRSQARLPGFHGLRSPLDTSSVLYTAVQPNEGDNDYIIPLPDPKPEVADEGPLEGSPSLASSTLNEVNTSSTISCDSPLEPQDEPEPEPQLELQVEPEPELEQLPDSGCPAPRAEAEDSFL
CSF-1R kinase, sequence (P07333 20-972): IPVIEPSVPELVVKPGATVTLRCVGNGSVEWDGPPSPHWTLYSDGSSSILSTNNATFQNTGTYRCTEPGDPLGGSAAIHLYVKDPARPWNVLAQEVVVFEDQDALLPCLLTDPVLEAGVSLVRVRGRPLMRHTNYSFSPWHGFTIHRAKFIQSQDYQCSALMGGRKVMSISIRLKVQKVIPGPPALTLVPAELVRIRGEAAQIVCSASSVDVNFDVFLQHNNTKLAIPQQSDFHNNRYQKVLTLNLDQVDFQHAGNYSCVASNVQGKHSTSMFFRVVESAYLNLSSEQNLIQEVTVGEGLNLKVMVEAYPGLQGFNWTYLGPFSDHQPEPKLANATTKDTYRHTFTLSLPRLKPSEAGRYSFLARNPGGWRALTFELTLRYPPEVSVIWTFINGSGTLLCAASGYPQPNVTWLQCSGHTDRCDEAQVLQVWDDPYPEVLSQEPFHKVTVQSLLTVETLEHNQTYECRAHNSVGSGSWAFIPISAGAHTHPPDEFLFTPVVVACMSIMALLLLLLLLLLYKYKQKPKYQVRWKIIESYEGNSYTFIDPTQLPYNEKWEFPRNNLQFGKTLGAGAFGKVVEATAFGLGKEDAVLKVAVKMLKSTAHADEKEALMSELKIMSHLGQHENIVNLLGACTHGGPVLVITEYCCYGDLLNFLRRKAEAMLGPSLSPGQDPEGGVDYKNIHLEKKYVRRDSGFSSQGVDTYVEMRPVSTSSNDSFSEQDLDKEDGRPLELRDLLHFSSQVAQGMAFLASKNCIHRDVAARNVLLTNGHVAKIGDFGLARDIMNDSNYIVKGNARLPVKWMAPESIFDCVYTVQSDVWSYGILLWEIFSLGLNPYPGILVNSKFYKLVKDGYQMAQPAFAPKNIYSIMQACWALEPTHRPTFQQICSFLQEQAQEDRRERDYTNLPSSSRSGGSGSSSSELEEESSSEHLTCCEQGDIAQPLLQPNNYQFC

SMILES | IC50 (CSF-1R kinase) [µM] | IC50 (c-KIT kinase; class symbol) [µM] | IC50 (FLT3 kinase; bound) [µM] | IC50 (PDGFRβ kinase; bound) [µM] | IC50 [1] [µM] | IC50 [2] [µM] | IC50 [3] [µM] | IC50 [4] [µM] | inhibition at 1 µM [5] [%] | IC50 (FLT3 kinase; class symbol) [µM] | IC50 (c-KIT kinase; bound) [µM] | IC50 (PDGFRβ kinase; class symbol) [µM]
COc1ccc(COc2ccc(Nc3ccc4ncc(N5CCN(CCO)CC5)nc4c3C#N)cc2OC)cn1 [Example 75, 3-(4-(2-hydroxyethyl)piperazin-1-yl)-6-((3-methoxy-4-((6-methoxypyridin-3-yl)methoxy)phenyl)amino)quinoxaline-5-carbonitrile] | < 0.1 | 0.1 to 0.3 | > 1 | > 1 | < 0.3 | > 10 | 0.3 to 1 | > 10 | > 50 |  |  | 
COc1cc(Nc2ccc3ncc(N4CCOCC4)nc3c2C#N)ccc1OCc1cccc(C#N)c1 [Example 65, 6-((4-((3-cyanobenzyl)oxy)-3-methoxyphenyl)amino)-3-morpholinoquinoxaline-5-carbonitrile] | < 0.1 | 0.1 to 0.3 | > 1 | > 1 | < 0.3 | > 10 | > 10 | > 10 | > 50 |  |  | 
COc1cc(Nc2ccc3ncc(N4CCOCC4)nc3c2C#N)ccc1OCc1cnn(CCF)c1 [Example 131, 6-((4-((1-(2-fluoroethyl)-1H-pyrazol-4-yl)methoxy)-3-methoxyphenyl)amino)-3-morpholinoquinoxaline-5-carbonitrile] | < 0.1 | 0.3 to 1 | > 1 | > 1 | < 0.3 | > 10 | > 10 | > 10 | > 50 |  |  | 
COc1cc(Nc2ccc3ncc(N4CCOCC4)nc3c2C#N)ccc1OCc1ccc(C2CC2)nc1 [Example 120, 6-((4-((6-cyclopropylpyridin-3-yl)methoxy)-3-methoxy-phenyl)amino)-3-morpholinoquinoxaline-5-carbonitrile] | < 0.1 | < 0.1 | > 1 | > 1 | < 0.3 | > 10 | < 0.3 | > 10 | > 50 |  |  | 
COc1ccc(COc2ccc(Nc3ccc4ncc(N5CCOCC5)nc4c3C#N)c(F)c2)cc1 [Example 53, 6-((2-fluoro-4-((4-methoxybenzyl)oxy)phenyl)amino)-3-morpholinoquinoxaline-5-carbonitrile] | < 0.1 | 0.3 to 1 |  | > 1 | 0.3 to 1 | < 0.3 | 1 to 10 | > 10 | > 50 | 0.3 to 1 |  | 
COc1cc(Nc2ccc3ncc(N4CCOCC4)nc3c2C#N)ccc1OCc1ccc(F)c(F)c1 [Example 99, 6-((4-((3,4-difluorobenzyl)oxy)-3-methoxyphenyl)amino)-3-morpholinoquinoxaline-5-carbonitrile] | < 0.1 |  | > 1 | > 1 | < 0.3 | > 10 | > 10 | > 10 | > 50 |  | > 1 | 
COc1ccc(COc2ccc(Nc3ccc4ncc(N5CCOCC5)nc4c3C#N)cc2OC)cc1OC [Example 58, 6-((4-((3,4-dimethoxybenzyl)oxy)-3-methoxyphenyl)amino)-3-morpholinoquinoxaline-5-carbonitrile] | < 0.1 | < 0.1 | > 1 |  | < 0.3 | > 10 | < 0.3 | > 10 | > 50 |  |  | 0.3 to 1
COc1cc(Nc2ccc3ncc(N4CCOCC4)nc3c2C#N)ccc1OCc1ccccc1 [Example 88, 6-((4-(benzyloxy)-3-methoxyphenyl)amino)-3-morpholinoquinoxaline-5-carbonitrile] | < 0.1 | < 0.1 | > 1 | > 1 | < 0.3 | 1 to 10 | 0.3 to 1 | > 10 | > 50 |  |  | 
COc1ccc(COc2ccc(Nc3ccc4ncc(N5CCOCC5)nc4c3C#N)cc2OC)cc1C#N [Example 96, 6-((4-((3-cyano-4-methoxybenzyl)oxy)-3-methoxy-phenyl)amino)-3-morpholinoquinoxaline-5-carbonitrile] | < 0.1 | 0.1 to 0.3 | > 1 | > 1 | < 0.3 | 1 to 10 | > 10 | > 10 | > 50 |  |  | 
COc1cc(Nc2ccc3ncc(N4CCNCC4)nc3c2C#N)ccc1OCc1ccc(C)nc1 [Example 67, 6-((3-methoxy-4-((6-methylpyridin-3-yl)methoxy)phenyl)amino)-3-(piperazin-1-yl)quinoxaline-5-carbonitrile] | < 0.1 | < 0.1 | > 1 | > 1 | < 0.3 | 1 to 10 | 1 to 10 | 1 to 10 | > 50 |  |  | 
COc1ccc(COc2ccc(N(C)c3ccc4ncc(N5CCOCC5)nc4c3C#N)cc2OC)cc1 [Example 60, 6-((3-methoxy-4-((4-methoxybenzyl)oxy)phenyl)(methyl)amino)-3-morpholinoquinoxaline-5-carbonitrile] | < 0.1 | 0.3 to 1 | > 1 | > 1 | < 0.3 | 1 to 10 | 1 to 10 | > 10 | > 50 |  |  | 
COc1ccc(COc2ncc(Nc3ccc4ncc(N5CCOCC5)nc4c3C#N)cc2OC)cn1 [Example 144, 6-((5-methoxy-6-((6-methoxypyridin-3-yl)methoxy)pyridin-3-yl)amino)-3-morpholinoquinoxaline-5-carbonitrile] | < 0.1 |  | > 1 | > 1 | < 0.3 | > 10 | > 10 | > 10 | > 50 |  | > 1 | 
COc1cc(Nc2ccc3ncc(N4CCC(N(C)C)CC4)nc3c2C#N)ccc1OCc1cccc(F)c1 [Example 89, 3-(4-(dimethylamino)piperidin-1-yl)-6-((4-((3-fluorobenzyl)oxy)-3-methoxyphenyl)amino)quinoxaline-5-carbonitrile] | < 0.1 | < 0.1 | > 1 | > 1 | < 0.3 | 1 to 10 | 1 to 10 | 1 to 10 | > 50 |  |  | 
COc1cc(Nc2ccc3ncc(N4CCOCC4)nc3c2C#N)ccc1OCc1ccsc1 [Example 126, 6-((3-methoxy-4-(thiophen-3-ylmethoxy)phenyl)amino)-3-morpholinoquinoxaline-5-carbonitrile] | < 0.1 | < 0.1 | > 1 | > 1 | 0.3 to 1 | 1 to 10 | < 0.3 | > 10 | > 50 |  |  | 
COc1ccc(COc2ccc(Nc3ccc4ncc(N5CCC5)nc4c3C#N)cc2OC)cc1 [Example 83, 3-(azetidin-1-yl)-6-((3-methoxy-4-((4-methoxybenzyl)oxy)phenyl)amino)quinoxaline-5-carbonitrile] | < 0.1 | < 0.1 | > 1 | > 1 | < 0.3 | > 10 | < 0.3 | > 10 | > 50 |  |  | 
